Data reported in patent publication US11285188B2, “Composition for preventing or treating metabolic diseases containing artemisiae capillaris herba and citrus unshiu peel complex extracts as active ingredients” (Medicare Pharmaceuticals Inc., priority 2018, dated 2022).

System: high-fat diet mouse model
Test: Therapeutic effect on hyperlipidemia and hypercholesterolemia in high-fat diet mouse model (blood cholesterol and triglycerides)
Assay type: in vivo
Conditions: high-fat diet female ICR mice, oral once a day for 12 weeks; complex extracts 100 mg/kg/day, Lovastatin 20 mg/kg/day
Method: 64 six-week-old female ICR mice were purchased from SLC Co. and acclimated for one week under breeding conditions of a temperature range of 22±1° C., a humidity range of 41±1%, and a 12-hour light/12-hour dark cycle. During this period, the mice were fed a normal diet. Then, the mice were randomly divided into 16 and 48 individuals. To adapt the mice to feed, the 16 individuals (a normal diet-fed group) were fed a normal diet (CA.170481, Teklad Co.) and the 48 individuals (a high-fat diet-fed group) were fed a high-fat diet (D12451, Research Diets Co.) containing 45 kcal % fat under the same breeding conditions as above for one week.
Specifically, eight mice were selected from the normal diet-fed group and assigned to a normal diet group. 24 mice were selected from the high-fat diet-fed group, eight of which were assigned to a high-fat diet group, a high-fat diet+complex extracts administration group, and a high-fat diet+Lovastatin administration group, respectively. Each experimental group was orally administered distilled water or the Artemisiae capillaris Herba and Citrus unshiu Peel complex extracts of Examples 1-3 containing the highest content of scoparone once a day for 12 weeks. In addition, a comparison group was orally administered Lovastatin (Hanmi Pharm. Co., Ltd), which is used to treat hyperlipidemia and hypercholesterolemia, once a day for 12 weeks. In this case, the complex extracts and Lovastatin were each suspended in distilled water and administered orally. In addition, the normal group was fed a normal diet and other experimental groups were fed a high-fat diet for 12 weeks.
In the experimental groups of Experimental Example <2-1>, changes in the contents of triglycerides and cholesterol were confirmed.
Specifically, each experimental group of Experimental Example <2-1> was orally administered samples for 12 weeks. On the last day of the experiment, all animals were bled under ether inhalation anesthesia, and 1 mL of the collected blood was centrifuged for 10 minutes at 3,000 rpm to isolate plasma. The contents of total cholesterol, triglycerides, and low density lipoprotein cholesterol (LDL) in the isolated plasma were measured using an Analyst III kit (Hemagen Diagnositics Co.) according to a manufacturer's procedure, and the content of high density lipoprotein cholesterol (HDL) was measured using an AU400 kit (Olympus Co.) according to a manufacturer's procedure.

CC[C@H](C)C(=O)O[C@H]1C[C@@H](C)C=C2C=C[C@H](C)[C@H](CC[C@@H]3C[C@@H](O)CC(=O)O3)[C@H]21 [Lovastatin]
Serum content HDL: 62.44 ± 1.96 mg/dL
Serum content LDL: 14.91 ± 0.46 mg/dL
Serum content Total cholesterol: 83.26 ± 7.40 mg/dL
Serum content Triglycerides: 81.43 ± 5.24 mg/dL
